How the values were obtained:
MCF-7 WT cells = experiment: Cell proliferation assay, MCF-7 WT; conditions: MCF-7 with ER-WT, charcoal-stripped FBS, 5 d
[1] = tested on: ER-regulated genes PGR, GREB1, TFF1/pS2; experiment: qPCR of ER target genes in MCF-7 cells; assay type: cell-based; conditions: MCF-7 in normal FBS-containing media, ~1 pM E2
Greb1 expression = experiment: Greb1 qPCR in primary myotubes; assay type: cell-based, mouse; conditions: steroid-free conditions, 24 h
[2] = tested on: primary female mouse myotubes; experiment: Primary myotube size by high-content imaging; assay type: cell-based; conditions: 50 pM, 5 d

C[C@]12CC[C@@H]3c4ccc(O)cc4CC[C@H]3[C@@H]1CC[C@@H]2O [Compound E2, 17β-estradiol]
Effect on proliferation (activity profile, in words) (MCF-7 WT cells): induced cell growth at doses 2 logs below the Kd
Gene expression profile in full media (in words) [1]: less induction of gene expression
Greb1 expression dose response (in words) (Greb1 expression): biphasic with an inflection point below the ligand Kd
Myotube diameter / tube area (in words) [2]: maintained primary myotube diameter
